Measured values published in patent US20220000765A1, “METHODS AND COMPOSITION FOR TREATING MICROBIAL INFECTIONS” (UNIVERSITY OF LOUISVILLE RESEARCH FOUNDATION, INC., priority 2018, published 2022).
Where two headings read alike, the source gives them in different places.

Tests used:
HIV-1 [1] = conditions: for interaction with Q-GRFT against HIV-1: in free and encapsulated forms
[2] = Met78Gln variant versus wild-type GRFT; cited from earlier work
Gardnerella vaginalis = test: Probiotic - Gv liquid co-culture; format: cell-based; conditions: Example 2; free probiotic (10e7 or 10e8), prebiotic and Gv; plated after 4 and 24 hours
Method: Bacteria loading, viability, and stability were tested by CFU count, BacLight live/dead assay, and fluorescence microscopy. La viability and stability were evaluated at −20° C., 4° C., and 25° C. by counting colony forming units (CFUs). To determine the ability of probiotic EFs to decrease Gv viability, a La EF-Gv co-culture was assessed.
Bacteria were co-cultured in media using the following experimental design (FIG. 16A). The probiotic (L. acidophilus (La) or L. crispatus (Lcr)), the prebiotic, and the Gv were combined for bacterial cell co-culture experiments. Each tube was serially diluted and plated after 4 (FIG. 16B) and 24 (FIG. 16C) hours growth.

HSV-2 [3] = test: In vivo efficacy against a lethal dose of HSV-2 infection (GRFT fibers, Example 5); parameters: species or system BALB/c mice
Method: All in vivo experimental procedures were approved by the University of Louisville's Institutional Animal Care and Use Committee (IACUC 17135) prior to testing. All animal studies were conducted using 5-week-old female BALB/c mice (Jackson Laboratory, Bar Harbor, Me.) to evaluate the efficacy and safety of GRFT fibers. For efficacy studies, mice were administered either blank or GRFT fibers (5 mg) that were UV-sterilized for 15 s. Mice were subcutaneously injected with 3 mg Depo-Provera (Revive, Madison, N.J.) to induce the diestrous stage of their cycle, 5 days prior to fiber administration.
To determine the efficacy of GRFT fibers against HSV-2 infection, mice were administered a single dose of either GRFT PEO, PVA, or PVP fibers, or control groups (n=20). Twenty-four hours after fiber administration, mice were challenged with HSV-2 (20 μL, LD90 5,000 PFU). Untreated/infected mice were used as positive controls for infection, while untreated/uninfected mice and infected mice treated with free GRFT (20 μL, of 1,000 μg/mL, 20 μg GRFT) served as negative controls. […] Blank PEO fibers were administered as an additional control group in efficacy studies. Mice were monitored daily for 14 days after HSV-2 challenge using an established 4-point scale to monitor the progression of viral infection. Each day, mice were weighed and examined for signs of neurological and epithelial damage. […]

HIV-1 [4] = conditions: NPs or eluates from 20% w/w NP-EF composites
Method: TZM-bl cells, obtained from the National Institutes of Health AIDS Research and Reference Reagent Program (ARRRP), are engineered HeLa cells that express CD4, CCR5 and CXCR4 receptors, and were used to assess in vitro HIV-1 infectivity. TZM-bl cells are highly permissive to infection by most HIV-1 and pseudovirus strains, and contain HIV-activated Tat-driven luciferase, allowing for precise quantification of infection. TZM-bl cells were cultured in Dulbecco's Modified Eagle medium (DMEM) containing 10% fetal bovine serum (FBS), 25 mM HEPES, and 50 μg/mL gentamicin (Thermo Fisher). […]
HIV inhibition was determined as a function of reduction in luciferase reporter gene expression after a single round of infection with pseudotyped HIV in TZM-bl cells. The optimal virus dilution (1:16) was established to yield ≥96,800 relative luminescence units (RLUs). […]
After 48 hr, 100 μL of culture medium was removed from each well. Luminescence was measured using the Bright-Glo luciferase assay (Promega Corporation, Madison, Wis.) by adding 100 μL Bright-Glo reagent solution to each well for 5 min and recording relative luminescence units (RLUs, Synergy HT reader, BioTek). […]

HSV-2 [5] = test: In vivo HSV-2 efficacy, murine model of lethal HSV-2 infection (GRFT NPs and NP-EFs, Example 4); parameters: species or system BALB/c mice
Method: All in vivo experiments were approved by the University of Louisville's Institutional Animal Care and Use Committee (IACUC-17135) prior to testing. […] For these studies, mice were subcutaneously injected with 3 mg Depo-Provera (Revive, Madison, N.J.) 5 days prior to vehicle administration to induce the diestrous stage of their cycle. All materials administered to mice were UV-sterilized for 15 s prior to use. […] Untreated/uninfected mice and mice treated with 20 μg free GRFT (20 μL of 1,000 μg/mL) served as negative controls of infection, while untreated/infected mice served as a positive control for infection. Blank mPEG-PLGA nanoparticles were administered as an additional control group in efficacy studies.

HSV-2 [6] = test: In vitro HSV-2 plaque assay in Vero E6 cells (GRFT fibers, Example 5); format: cell-based, HSV-2 (4674); conditions: eluates of 10% w/w GRFT fibers; 1 hr prior to infection
Method: To conduct HSV-2 plaque assays, Vero E6 cells and HSV-2 (4674) were kindly provided by Dr. Kenneth Palmer from the University of Louisville.
HSV-2 plaque assays were conducted to evaluate the in vitro efficacy of 10% w/w GRFT fibers against HSV-2 infection as previously described. Briefly, Vero E6 cells were seeded at 600,000 cells/well in a 6-well flat bottom plate (50% confluence) and grown for 24 hr to confluence. Prior to cell infection, 10% w/w GRFT fibers (30 mg) were dissolved in 20 mL complete plating media (1% FBS MEM). Once the cells were fully confluent, the growth media was removed and replaced with 2 mL of GRFT fiber eluate dilutions, followed by HSV-2 infection (3,000 PFU per well) 1 hr later. Free GRFT (2,000 μg/mL), corresponding to the concentration necessary to provide complete HSV-2 inhibition, was used as a positive control for inhibition, in addition to untreated/uninfected cells. Untreated/infected cells, were used as a negative control of inhibition.
Subsequent to HSV-2 infection, plates were incubated for 48 hr at 37° C., all media was removed, and cells were fixed with 1.5 mL methanol for 10 min. […] Finally, plates were washed with Milli-Q water, and plaques were counted after drying. […] Samples were analyzed in triplicate, and GraphPad Prism software was used to determine and compare the IC50 values of GRFT fibers to free GRFT.

HIV-1 [7] = conditions: eluates of 1% w/w GRFT fibers
Description: TZM-bl cells, obtained from the National Institutes of Health (NIH) AIDS Research and Reference Reagent Program (ARRRP), were used to assess in vitro HIV-1 infectivity. TZM-bl cells are engineered HeLa cells that express CD4, CCR5 and CXCR4 receptors and contain a Tat-driven luciferase gene, which is activated by HIV-1 infection and permits sensitive and accurate measurements of infection. TZM-bl cells are highly permissive to infection by most strains of HIV and molecularly cloned Env-pseudotyped viruses. TZM-bl cells were cultured in DMEM containing 10% FBS, 25 mM HEPES, and 50 μg/mL gentamicin. […]
The antiviral activity of GRFT fibers against HIV-1 was measured using an in vitro HIV-1 pseudovirus inhibition assay. As previously described, HIV-1 inhibition was determined as a function of reduction in luciferase reporter gene expression after a single round of infection in TZM-bl cells. The optimal virus dilution was established prior to the experiments to yield 100,000 relative luminescence units (RLUs). […]
After 48 hr, 100 μL, culture medium was carefully removed from each well. Luminescence was measured using the Bright-Glo luciferase assay system (Promega Corporation, Madison, Wis.) by adding 100 μL, Bright-Glo reagent solution to each well for 5 min. Plates were read via luminescence by the Synergy HT reader (BioTek). […]

## Cc1nnc(C(=O)NC(C)(C)c2nc(C(=O)NCc3ccc(F)cc3)c(O)c(=O)n2C)o1 [RAL, Raltegravir]
HIV-1 [1]
  interaction with Q-GRFT against HIV-1: synergistic interactions

## free Q-GRFT: oxidation-resistant variant of GRFT in which the Met at position 78 was replaced by a Gln
[2]
  susceptibility to oxidation: no susceptibility to oxidation
HIV-1 [1]; in combination with the free ARVs (TFV, RAL, DAP)
  fold lowering of IC50 of free Q-GRFT: up to 6 fold

## inulin
Gardnerella vaginalis
  effect on Gv growth in probiotic-prebiotic-Gv co-culture: increase of Gv growth

## Cc1cc(C)c(Nc2ccnc(Nc3ccc(C#N)cc3)n2)c(C)c1 [DAP, Dapivirine]
HIV-1 [1]
  interaction with Q-GRFT against HIV-1: synergistic interactions

## Griffithsin [free GRFT]
HSV-2 [3]; mice that exhibited symptoms, relative to untreated/infected mice
  progression of infection: decreased progression of infection
HSV-2 [3]; of 20 mice
  infected mice whose initial symptoms disappeared near the end of the study: 1 of 20
HIV-1 [4]; administered to TZM-bl cells 1 hr prior to infection
  IC50 against HIV-1: 0.0215 ± 0.0053 µg/mL
HIV-1 [4]; administered to TZM-bl cells 24 hr prior to infection
  IC50 against HIV-1: 0.0208 ± 0.0067 µg/mL
HSV-2 [5]; intravaginal, single HSV-2 challenge LD90 5,000 PFU 24 hr later, 14 d post-infection, n=20
  survivability: 85%
HSV-2 [5]; treated mice that became symptomatic, relative to untreated/infected control group
  onset of symptoms and progression of infection: delayed onset of symptoms and a more gradual progression of infection
HSV-2 [6]
  1 Hr HSV-2 IC50: 25.5 ± 0.5 µg/mL
HIV-1 [7]; 1 hr prior to infection
  1 Hr HIV-1 IC50: 0.0241 ± 0.0156 µg/mL
HIV-1 [7]; 24 hr prior to infection
  24 Hr HIV-1 IC50: 0.0228 ± 0.0122 µg/mL

## C[C@H](Cn1cnc2c(N)ncnc21)OCP(=O)(O)O [TFV, Tenofovir]
HIV-1 [1]
  interaction with Q-GRFT against HIV-1: synergistic interactions
